From patent US7022319B1, “Vectors carrying therapeutic genes encoding antimicrobial peptides for gene therapy” (GSF - Forschungszentrum fuer Umwelt und Gesundheit GmbH, priority 1995, dated 2006)

Tests used:
[1] = test system: human bladder carcinoma derived cell line, EJ; assay: Tumorigenicity in nude mice of EJ cell clones carrying melittin or cecropin expression constructs; type: in vivo; conditions: EJ cell clones carrying the gene, injected into nude mice; FIGS. 9A-9G and 10A-10F
Description: EJ cells were transfected with p125.CercA and the clones expressing neomycin resistance were isolated. Six clones were isolated: Cecropin A1.4, Cecropin A1.7, Cecropin A1.8, Cecropin A10.3, Cecropin A10.4, and Cecropin A10.8.
Similarly Ej cells were transfected with pBAGpMel and pBagppMel and the clones expressing neomycin resistance were isolated. Three clones containing the premelittin gene were isolated: Pre Melittin 1, Pre Melittin 4, and Pre Melittin 6. Two clones containing prepromelittin were isolated: Pre Pro Melittin 1, and Pre Pro Melittin 5.
The human bladder carcinoma derived cell line, EJ, gives tumours upon injection into immuno compromised nude mice which grow progressively larger (FIGS. 9A–9G). The stable clones of Ej cells carrying the melittin or cecropin expression constructs obtained as described above were tested for their tumorigenicity in nude ice.

[2] = test system: HIV LTR; assay: HIV LTR-luciferase reporter (HIV-luc) supertransfected into EJ derived cell clones, with or without Tat; type: cell-based; conditions: in the presence of Tat, FIGS. 11 and 12
Description: EJ derived cell clones carrying the melittin or cecropin expression vector or the parental. BAG vector, not carrying a therapeutic gene, were supertransfected with an indicator construct carrying the HIV LTR (and thus the HIV promoter) linked to a firefly luciferase reporter gene (HIV-luc) in the absence or presence of a separate construct expressing Tat. In the absence of Tat there was little luciferase activity detectable from the HIV-luc construct in all cell clones as expected since the HIV promoter requires Tat for its activity. […] Thus the production of HIV from infected cells will be inhibited by the antimicrobial peptide gene carrying therapeutic-retroviral vector. This effect is expected to lead to a lack of virus production from HIV infected cells.

[3] = test system: MMTV LTR; assay: MMTV LTR-luciferase reporter supertransfected into cells carrying PreProCecropin or PreProMelittin; type: cell-based, Mouse Mammary Tumour Virus; conditions: two different MMTV LTRs; gene under control of an MLV promoter; FIGS. 13A-13B
Description: A similar experiment to that of FIGS. 11 and 12 can be seen in FIGS. 13A–13B whereby two different MMTV LTR's controlling the expression of a luciferase reporter gene (Wintersberger et al., Proc. Natl. Acad. Sci. USA, 92:2745–2749) were separately supertransfected into cells carrying either PreProCecropin or PreProMelittin under control of an MLV promoter.

[4] = test system: bacteria; conditions: cited from earlier work
[5] = test system: mammalian cells; conditions: cited from earlier work
[6] = test system: variety of tumour cell lines; conditions: cited from earlier work
[7] = test system: cancer; conditions: purified peptide given to cells in culture; cited from earlier work
[8] = test system: HIV; conditions: purified peptide given to cells in culture; cited from earlier work

In the case of cecropin, the “rate of tumour growth in mice” value [1] is reported as “reduced rate of tumour growth”, the “luciferase expression from HIV-luc” value [2] is reported as “little luciferase expression” and the “effect on expression from MMTV LTR luciferase reporter” value [3] is reported as “downregulatory effect”.
For Cecropin B, the antibacterial activity [4] is listed as “specific antibacterial activity”, the “ill effects for mammalian cells” value [5] is listed as “without any apparent ill effects” and the “anticancer activity against tumour cell lines” value [6] is listed as “anticancer activity”.
For Cecropin A, the antibacterial activity [4] is listed as “specific antibacterial activity” and the “ill effects for mammalian cells” value [5] is listed as “without any apparent ill effects”.
In the case of `CC[C@H](C)[C@H](NC(=O)CN)C(=O)NCC(=O)N[C@@H](C)C(=O)N[C@H](C(=O)N[C@@H](CC(C)C)C(=O)N[C@@H](CCCCN)C(=O)N[C@H](C(=O)N[C@@H](CC(C)C)C(=O)N[C@H](C(=O)N[C@H](C(=O)NCC(=O)N[C@@H](CC(C)C)C(=O)N1CCC[C@H]1C(=O)N[C@@H](C)C(=O)N[C@@H](CC(C)C)C(=O)N[C@H](C(=O)N[C@@H](CO)C(=O)N[C@@H](Cc1c[nH]c2ccccc12)C(=O)N[C@H](C(=O)N[C@@H](CCCCN)C(=O)N[C@@H](CCCNC(=N)N)C(=O)N[C@@H](CCCCN)C(=O)N[C@@H](CCCNC(=N)N)C(=O)N[C@@H](CCC(N)=O)C(=O)N[C@@H](CCC(N)=O)C(N)=O)[C@@H](C)CC)[C@@H](C)CC)[C@@H](C)O)[C@@H](C)O)C(C)C)C(C)C` [melittin], the anti-cancer activity [7] is given as “selective anti-cancer” and the anti-HIV activity [8] is given as “anti-HIV activity”.
